Results taken from publication PMC8424217 (The Journal of Biological Chemistry, 2021).
“Also recorded” adds a separate entry of the source. Peptide text beside a SMILES is read from it. * marks the point of attachment. Palmitoyl = CCCCCCCCCCCCCCCC(=O)*

Key:
[1] = Solution NMR conformational analysis in DPC micelles; type: physicochemical; settings: pH 5.5, 25 °C, restrained MD calculations
Procedure: Samples for NMR spectroscopy were prepared by dissolving the appropriate amount of peptide in 0.54 ml of ^1H2O (pH 5.5), 0.06 ml of ^2H2O to obtain a final DPC-d38 concentration of 2 mM and 200 mM. NMR spectra were recorded on a Varian INOVA 700 MHz spectrometer equipped with a z-gradient 5 mm triple-resonance probe head. All spectra were recorded at a temperature of 25 °C and were calibrated relative to TSP (0.00 ppm) as internal standard. One-dimensional (1D) NMR spectra were recorded in the Fourier mode with quadrature detection. The water signal was suppressed by gradient echo ([70]). Two dimensional (2D) DQF-COSY ([71], [72]), TOCSY ([73]), and NOESY ([74]) spectra were recorded in the phase-sensitive mode as described ([75]). Data block sizes were 2048 addresses in t2 and 512 equidistant t1 values. […] The qualitative and quantitative analyses of DQF-COSY, TOCSY, and NOESY spectra were obtained using the interactive program package XEASY ([76]). Complete ^1H NMR chemical shift assignments were effectively achieved for hUT-Pep2 and [Trp^1, Leu^2]hUT-Pep3 according to the Wüthrich procedure ([77]) via the usual systematic application of DQF-COSY, TOCSY, and NOESY experiments with the support of the XEASY software package (Tables S1 and S3). ^3JαN coupling constants were measured by 1D proton and DQF-COSY spectra. […]

hUT = target: T1, hUT (Homo sapiens, UniProt Q9UKP6); test: ERK1/2 phosphorylation, BRET-based biosensor, HEK 293-hUT cells; type: cell-based; design: expressed in transfected cells; settings: concentration-response
T1 sequence (Q9UKP6 1-389): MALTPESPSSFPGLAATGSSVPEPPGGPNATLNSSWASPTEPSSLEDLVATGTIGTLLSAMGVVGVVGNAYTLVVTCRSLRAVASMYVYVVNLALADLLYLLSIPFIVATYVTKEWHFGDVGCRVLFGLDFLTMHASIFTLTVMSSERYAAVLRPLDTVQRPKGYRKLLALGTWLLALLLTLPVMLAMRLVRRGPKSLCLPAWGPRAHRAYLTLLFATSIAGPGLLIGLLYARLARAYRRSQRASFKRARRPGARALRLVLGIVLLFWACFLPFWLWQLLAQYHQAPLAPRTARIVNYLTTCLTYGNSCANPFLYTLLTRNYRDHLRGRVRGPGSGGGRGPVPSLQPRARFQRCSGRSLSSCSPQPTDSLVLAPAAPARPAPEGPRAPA
Procedure: HEK 293-hUT cells were grown in DMEM culture media supplemented with 10% foetal bovine serum, HEPES, sodium pyruvate, and G418 (200 μg mL^−1). Passages were performed when cells reached 80% of confluency. Cells were initially plated in 96-well plates at a density of 10,000 cells/well. The following day, the medium is replaced with DMEM culture media supplemented with 2.5% foetal bovine serum (FBS), and 12 h later, cells were transiently transfected with 25 ng/well of a Gq-polycistronic, 25 ng/well of a G12-polycistronic BRET sensor, 25 ng/well of a G13-polycistronic BRET sensor, 2.5 ng/well pIRESB RLucII-ERK-NLS-GFP BRET sensor, 2.5 ng β-arrestin 1-polycistronic BRET sensor, or 2.5 ng β-arrestin 2-polycistronic BRET sensor using Lipofectamine2000 at a ratio of 3:1 (Lipofectamine/plasmid DNA) in serum-free Opti-MEM ([44], [81]). […] Then, to evaluate Gq and G12 activation, 10 μl of a 1/20 dilution (diluted before use) of coelenterazine 400A (stock at 1 mM in ethanol) in Kreb's buffer and 10 μl of the 10× appropriate concentration of peptide were added, and the luminescence was evaluated with an Infinite M1000 PRO. […] Readings were performed after 5 min using an Infinite M1000 PRO. […] BRET ratio was determined by calculating the ratio of the light emitted by GFP10 over the light emitted by the RlucII. […]

SMILES	conformation by NMR [1]	ERK1/2 phosphorylation (BRET) versus hUII (hUT)
CCCCCCCCCCCCCCCC(=O)N[C@@H](Cc1c[nH]c2ccccc12)C(=O)N[C@@H](CC(C)C)C(=O)N[C@@H](CO)C(=O)N[C@@H](CCC(N)=O)C(=O)N[C@@H](CCCNC(=N)N)C(=O)N[C@@H](C)C(=O)N[C@@H](CO)C(=O)N[C@@H](Cc1ccccc1)C(=O)N[C@@H](CCCCN)C(=O)N[C@@H](CCCNC(=N)N)C(=O)N[C@@H](C)C(=O)N[C@@H](CCCNC(=N)N)C(=O)N[C@@H](CCCNC(=N)N)C(N)=O [[Trp^1, Leu^2]hUT-Pep3] (Palmitoyl-WLSQRASFKRARR-NH2)	high tendency of [Trp^1, Leu^2]hUT-Pep3 to fold into a helix	lower potency and efficacy than hUII
CCCCCCCCCCCCCCCC(=O)N[C@@H](CCCNC(=N)N)C(=O)N1CCC[C@H]1C(=O)N[C@@H](CC(C)C)C(=O)N[C@@H](CC(=O)O)C(=O)N[C@H](C(=O)N[C@H](C(=O)N[C@@H](CCC(N)=O)C(=O)N[C@@H](CCCNC(=N)N)C(=O)N1CCC[C@H]1C(=O)N[C@@H](CCCCN)C(=O)NCC(=O)N[C@@H](Cc1ccc(O)cc1)C(N)=O)C(C)C)[C@@H](C)O [hUT-Pep2] (Palmitoyl-RPLDTVQRPKGY-NH2)	two type I β-turns along residues 1–4 and 3–6 and three distorted (type IV) β-turns along residues 4–7, 5–8, and 6–9	lower potency and efficacy than hUII; also recorded: partial agonist
